The supplement of paper PMC10307832

How the values were obtained:
Assay in all cases: relative viability (nuclei count vs DMSO), 5 days (fraction); higher = more cells survive
4EGI-1 + Trametinib = compound: O=C(O)C(Cc1ccccc1[N+](=O)[O-])=NNc1nc(-c2ccc(Cl)c(Cl)c2)cs1 (mixture of isomers) [4EGI-1] + CC(=O)Nc1cccc(-n2c(=O)n(C3CC3)c(=O)c3c(Nc4ccc(I)cc4F)n(C)c(=O)c(C)c32)c1 [Trametinib] (partner 0.02 µM)
Procedure, shortened: (§1)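 Lung cancer cell lines were seeded in 1536-well plates and dosed by pin tool the next day, with either a single drug or a fixed anchor-drug dose combined with five library-drug doses (not always all listed) spaced in √10 steps. Five days later, one step fixed the cells and stained their nuclei (final 0.05% Triton X-100, 1% formaldehyde, 1 ug/ml Hoechst), and nuclei were counted on 4× images. Relative viability is the nuclei count in treated wells divided by the count in vehicle wells, and each value is the median of duplicate plates.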

XMD8-85 + Foretinib = compound: CN1CCN(CC1)C2=CC(=C(C=C2)NC3=NC=C4C(=N3)N(C5=CC=CC=C5C(=O)N4C)C)OC [XMD8-85] + COc1cc2c(Oc3ccc(NC(=O)C4(C(=O)Nc5ccc(F)cc5)CC4)cc3F)ccnc2cc1OCCCN1CCOCC1 [Foretinib] (partner 0.25 µM)
Procedure, shortened: as §1

XMD8-85 + Vorinostat = compound: CN1CCN(CC1)C2=CC(=C(C=C2)NC3=NC=C4C(=N3)N(C5=CC=CC=C5C(=O)N4C)C)OC [XMD8-85] + O=C(CCCCCCC(=O)Nc1ccccc1)NO [Vorinostat] (partner 1 µM)
Procedure, shortened: as §1

4EGI-1 + Navitoclax = compound: O=C(O)C(Cc1ccccc1[N+](=O)[O-])=NNc1nc(-c2ccc(Cl)c(Cl)c2)cs1 (mixture of isomers) [4EGI-1] + CC1(C)CCC(c2ccc(Cl)cc2)=C(CN2CCN(c3ccc(C(=O)NS(=O)(=O)c4ccc(N[C@H](CCN5CCOCC5)CSc5ccccc5)c(S(=O)(=O)C(F)(F)F)c4)cc3)CC2)C1 [Navitoclax] (partner 0.5 µM)
Procedure, shortened: as §1

Cell Line | relative viability (4EGI-1 + Trametinib; first compound 0.5 µM) | relative viability (4EGI-1 + Trametinib; first compound 1.581 µM) | relative viability (4EGI-1 + Trametinib; first compound 5 µM) | relative viability (4EGI-1 + Trametinib; first compound 15.81 µM) | relative viability (4EGI-1 + Trametinib; first compound 50 µM) | relative viability (XMD8-85 + Foretinib; first compound 0.08 µM) | relative viability (XMD8-85 + Foretinib; first compound 0.253 µM) | relative viability (XMD8-85 + Foretinib; first compound 0.8 µM) | relative viability (XMD8-85 + Foretinib; first compound 2.53 µM) | relative viability (XMD8-85 + Foretinib; first compound 8 µM) | relative viability (XMD8-85 + Vorinostat; first compound 0.08 µM) | relative viability (XMD8-85 + Vorinostat; first compound 0.253 µM) | relative viability (XMD8-85 + Vorinostat; first compound 0.8 µM) | relative viability (XMD8-85 + Vorinostat; first compound 2.53 µM) | relative viability (XMD8-85 + Vorinostat; first compound 8 µM) | relative viability (4EGI-1 + Navitoclax; first compound 0.5 µM) | relative viability (4EGI-1 + Navitoclax; first compound 1.581 µM) | relative viability (4EGI-1 + Navitoclax; first compound 5 µM) | relative viability (4EGI-1 + Navitoclax; first compound 15.81 µM) | relative viability (4EGI-1 + Navitoclax; first compound 50 µM)
BEN | 1.32 | 1.05 | 1.18 | 0.976 | 0.901 | 0.729 | 0.543 | 0.509 | 0.438 | 0.304 | 0.554 | 0.536 | 0.627 | 0.501 | 0.455 | 0.0672 | 0.0661 | 0.0652 | 0.0675 | 0.0686
EKVX | 0.436 |  | 0.351 | 0.239 | 0.268 | 0.716 | 0.864 | 0.836 | 0.971 | 0.664 | 0.631 | 0.8 | 0.851 | 0.91 | 0.626 | 1.09 | 0.77 | 0.911 | 0.803 | 0.603
NCI-H1755 | 0.773 | 0.802 | 0.711 | 0.72 | 0.556 | 0.873 | 0.921 | 0.88 | 0.97 | 0.783 | 0.8 | 0.799 | 0.695 | 0.761 | 0.692 | 1.02 | 0.995 | 0.949 | 0.86 | 0.833
NCI-H2126 | 0.552 | 0.553 | 0.506 | 0.463 | 0.384 | 1.07 | 1.03 | 1.13 | 0.996 | 0.935 | 0.772 |  | 0.795 |  | 0.553 | 0.892 | 0.793 | 0.858 | 0.709 | 0.806
NCI-H1651 | 0.914 | 0.775 | 0.863 | 0.796 | 0.831 | 0.857 | 0.769 | 0.712 | 0.799 | 0.631 | 0.602 | 0.562 | 0.5 | 0.546 | 0.449 | 1.17 | 0.914 | 0.965 | 1.01 | 0.33
NCI-H2228 | 0.496 | 0.499 | 0.575 | 0.456 | 0.197 | 0.88 | 0.758 | 0.789 | 0.816 | 0.423 | 0.523 | 0.59 | 0.585 | 0.842 | 0.392 | 1.08 | 1.08 | 0.99 | 0.617 | 0.931
NCI-H460 | 0.245 | 0.0821 | 0.109 | 0.133 | 0.018 | 1.07 | 1.09 | 1.05 | 0.948 | 0.78 | 0.53 | 0.786 | 0.672 | 0.766 | 0.146 | 1.22 |  | 1.16 | 0.701 | 0.0476
NCI-H2347 | 0.304 | 0.27 | 0.309 | 0.298 | 0.302 | 0.75 | 0.836 | 0.829 | 1.07 | 0.758 | 0.603 | 0.564 | 0.59 | 0.533 | 0.504 | 0.972 | 0.586 | 0.776 | 0.861 | 0.721
EMC-BAC-2 | 0.989 |  | 0.928 | 0.878 | 0.652 | 1.1 | 1.05 | 0.975 | 0.965 | 0.754 | 0.424 | 0.468 | 0.413 | 0.385 | 0.185 | 1.16 | 1.2 | 1.05 | 1.08 | 1.09
NCI-H1437 | 0.608 | 0.537 | 0.549 | 0.337 | 0.207 | 1.3 | 1.28 | 1.32 | 1.08 | 0.867 | 0.93 | 0.879 | 0.94 | 0.751 | 0.482 | 1.19 | 1 | 1.04 | 0.395 | 0.178
NCI-H2009 | 0.339 | 0.28 | 0.306 | 0.24 | 0.139 | 1.24 | 1.25 | 1.23 | 1.08 | 0.516 | 0.716 | 0.774 |  | 0.621 |  | 1.19 | 1.21 | 1.22 | 1.11 | 0.17
NCI-H1944 | 0.481 |  | 0.354 | 0.314 | 0.334 |  | 1.04 | 0.898 | 0.836 | 0.571 | 0.581 |  | 0.544 | 0.594 | 0.493 | 1.19 |  | 1.07 | 0.969 | 0.94
NCI-H1734 | 0.73 | 0.521 | 0.684 | 0.761 | 0.483 | 0.858 | 0.853 | 0.896 | 0.842 | 0.629 | 0.788 | 0.84 | 0.826 | 0.768 | 0.56 | 0.931 | 0.901 | 0.96 | 0.851 | 0.492
SK-LU-1 | 0.5 | 0.527 | 0.538 | 0.474 | 0.326 | 0.845 | 0.825 | 0.841 | 0.772 | 0.674 |  |  | 0.92 | 0.9 | 0.694 | 0.792 | 1.09 | 0.974 | 0.548 | 0.161
NCI-H1915 | 0.367 | 0.234 | 0.308 | 0.289 | 0.245 | 1.16 | 1.1 | 1.16 | 1.02 | 0.83 | 0.556 | 0.546 | 0.485 | 0.5 | 0.476 | 0.825 | 0.606 | 0.797 | 0.754 | 0.596
SW 1573 | 0.59 | 0.476 | 0.526 | 0.514 | 0.251 | 0.876 | 0.884 | 0.854 | 1 | 0.762 | 0.643 | 0.739 | 1.11 | 0.596 | 0.46 | 1.26 | 0.927 | 0.947 | 0.843 | 0.674
